Source: publication PMC4623978, “Modulation of Closed−State Inactivation in Kv2.1/Kv6.4 Heterotetramers as Mechanism for 4−AP Induced Potentiation” (PLoS ONE, 2015)

Tests used:
[1] = target: T1, Kv2.1/Kv5.1 heterotetramer (Homo sapiens, UniProt Q14721+Q9H3M0); assay: whole-cell patch clamp, current block; assay type: cell-based; conditions: pH 7.35 outside, 20-23 °C
T1 construct: gene KCNB1; co-transfected in mouse Ltk- cells, KvS:Kv2.1 10:1 cDNA
T1 sequence (Q14721 1-858): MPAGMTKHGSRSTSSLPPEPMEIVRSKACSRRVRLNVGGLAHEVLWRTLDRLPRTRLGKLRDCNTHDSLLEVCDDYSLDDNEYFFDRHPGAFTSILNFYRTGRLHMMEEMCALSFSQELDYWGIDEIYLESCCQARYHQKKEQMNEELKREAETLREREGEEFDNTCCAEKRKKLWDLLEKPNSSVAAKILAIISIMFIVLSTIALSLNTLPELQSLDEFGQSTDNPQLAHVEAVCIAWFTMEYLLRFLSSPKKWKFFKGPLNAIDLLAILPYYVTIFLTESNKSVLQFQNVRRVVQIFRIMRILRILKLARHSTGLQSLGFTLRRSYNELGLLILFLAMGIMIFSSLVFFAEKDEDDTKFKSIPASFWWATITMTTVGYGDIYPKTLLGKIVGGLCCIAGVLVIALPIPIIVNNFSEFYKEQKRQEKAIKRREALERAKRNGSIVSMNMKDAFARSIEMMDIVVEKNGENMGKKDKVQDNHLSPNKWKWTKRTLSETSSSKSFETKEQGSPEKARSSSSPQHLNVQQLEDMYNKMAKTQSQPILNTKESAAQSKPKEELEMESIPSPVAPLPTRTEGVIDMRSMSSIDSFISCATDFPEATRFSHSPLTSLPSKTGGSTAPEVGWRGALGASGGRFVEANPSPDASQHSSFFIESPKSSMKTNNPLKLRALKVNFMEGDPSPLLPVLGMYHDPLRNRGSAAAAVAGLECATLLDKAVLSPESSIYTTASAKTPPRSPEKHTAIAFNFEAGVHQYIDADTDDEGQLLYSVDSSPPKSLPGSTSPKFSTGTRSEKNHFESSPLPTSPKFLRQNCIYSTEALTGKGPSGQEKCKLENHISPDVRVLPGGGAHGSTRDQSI
T1 sequence (Q9H3M0 1-494): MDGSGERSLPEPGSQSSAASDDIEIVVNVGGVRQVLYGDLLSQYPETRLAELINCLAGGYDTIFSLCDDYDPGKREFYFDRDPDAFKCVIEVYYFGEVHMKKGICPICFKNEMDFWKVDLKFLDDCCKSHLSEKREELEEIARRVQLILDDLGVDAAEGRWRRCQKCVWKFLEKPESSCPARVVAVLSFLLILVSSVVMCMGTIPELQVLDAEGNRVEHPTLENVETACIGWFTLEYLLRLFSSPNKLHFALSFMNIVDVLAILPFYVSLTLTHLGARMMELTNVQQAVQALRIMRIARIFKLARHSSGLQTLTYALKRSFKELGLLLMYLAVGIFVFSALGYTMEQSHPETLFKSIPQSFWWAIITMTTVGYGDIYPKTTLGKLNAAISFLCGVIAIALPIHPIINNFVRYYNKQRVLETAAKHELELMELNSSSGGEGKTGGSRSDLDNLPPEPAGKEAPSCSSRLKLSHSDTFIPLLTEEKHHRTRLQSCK

Kv2.1/Kv6.4_S6c_Kv9.3 = tested on: T2, Kv2.1/Kv6.4_S6c_Kv9.3; assay: whole-cell patch clamp, current block; assay type: cell-based, Homo sapiens (Kv2.1, Kv6.4); Mus musculus (Kv9.3 S6c); conditions: pH 7.35 outside, 20-23 °C
T2 construct: gene KCNB1

[2] = target: T3, Kv2.1/Kv6.4 heterotetramer (Homo sapiens, UniProt Q14721+Q8TDN1); assay: whole-cell patch clamp, Hill fit of current at +[…] mV; assay type: cell-based
T3 construct: gene KCNB1; co-transfected in mouse Ltk- cells, KvS:Kv2.1 10:1 cDNA; formerly named Kv6.3
T3 sequence (Q14721 1-858): T1 sequence (Q14721 1-858)
T3 sequence (Q8TDN1 1-519): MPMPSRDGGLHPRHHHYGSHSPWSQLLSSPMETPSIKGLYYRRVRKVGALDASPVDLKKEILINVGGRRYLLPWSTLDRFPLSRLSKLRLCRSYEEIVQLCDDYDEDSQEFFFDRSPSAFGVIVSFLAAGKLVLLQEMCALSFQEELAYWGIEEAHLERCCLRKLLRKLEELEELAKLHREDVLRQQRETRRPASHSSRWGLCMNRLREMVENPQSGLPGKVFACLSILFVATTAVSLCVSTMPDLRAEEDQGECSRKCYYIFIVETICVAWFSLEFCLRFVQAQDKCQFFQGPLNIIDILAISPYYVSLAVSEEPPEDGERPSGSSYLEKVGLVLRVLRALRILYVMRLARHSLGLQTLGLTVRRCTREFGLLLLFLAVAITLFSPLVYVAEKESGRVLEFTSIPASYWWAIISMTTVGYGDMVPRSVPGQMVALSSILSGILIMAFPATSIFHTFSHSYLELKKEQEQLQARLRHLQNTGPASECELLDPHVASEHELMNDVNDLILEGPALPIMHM

Kv2.1 homotetramer = target: T4, Kv2.1 homotetramer (Homo sapiens, UniProt Q14721); assay: as above; assay type: cell-based
T4 construct: gene KCNB1; full-length in eGFP-N1 vector, transiently expressed in mouse Ltk- cells; homotetramer
T4 sequence (Q14721 1-858): T1 sequence (Q14721 1-858)

IC50 [2]	IC50 (Kv2.1 homotetramer)	Structure (SMILES)	% inhibition at 18 mM [1]	% inhibition at 18 mM (Kv2.1/Kv6.4_S6c_Kv9.3)
		Nc1ccncc1 [4-aminopyridine]	10 ± 2%	12 ± 3%
2 ± 0.1 µM	7.4 ± 0.8 µM	O=C(NCC1CCCCN1)c1cc(OCC(F)(F)F)ccc1OCC(F)(F)F (stereo not drawn) [flecainide]		
3 ± 0.1 µM	7.2 ± 0.8 µM	C=C[C@H]1C[N@@]2CC[C@H]1C[C@@H]2[C@@H](O)c1ccnc2ccc(OC)cc12 [quinidine]		
